Data published in US7893288B2, “Poly-halogenated triazapentadiene compositions” (Board of Regents, The University of Texas System, priority 2007, dated 2011).
“And” between values parts separate entries of the source, which are not always exact repeats. Identical values can stand only once.

What was measured:
Format in all cases: cell-based
[1] = tested on: Staphylococcus aureus (ATCC 25923); test: Disk sensitivity test (modified Kirby-Bauer), S. aureus;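 also: Compound-loaded filter disks on LB agar plates seeded with a confluent bacterial lawn, compound dissolved in DMSO, plates kept overnight at 37 °C, then inhibition zone around disk measured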
Protocol: (§1) Filter disks were provided as sterile filter paper (about 6 mm in diameter) and spotted with 20 μL of a selected compound. Each compound was initially dissolved in dimethylsulfoxide (DMSO); any subsequent dilutions were also made in DMSO. Each filter was placed on an LB agar plate spread with 100 μL of a bacterial culture that had been grown overnight in suitable LB broth. Plates were incubated overnight at 37° C., after which, the extent of growth inhibition around each filter disk was measured. Bacterial strains included Staphylococcus aureus (ATCC 25923), Pseudomonas aeruginosa PAO1, Bacillus subtilis W168 and Escherichia coli HB101. […] The latter two strains are non-pathogenic Gram-positive and Gram-negative bacterial strains, respectively.

Bacillus subtilis W168 [2] = test: Disk sensitivity test (modified Kirby-Bauer), B. subtilis;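 also: Compound-loaded filter disks on LB agar plates seeded with a bacterial lawn, plates held overnight at 37 °C, then the clear zone around each disk measured, compounds in DMSO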
Protocol: as §1

[3] = tested on: Pseudomonas aeruginosa PAO1; test: Disk sensitivity test (modified Kirby-Bauer), P. aeruginosa;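 also: Compound-loaded filter disks on LB agar lawns, DMSO as solvent, zone of inhibition around each disk read after overnight incubation at 37 °C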
Protocol: as §1

Escherichia coli HB101 [4] = test: Disk sensitivity test (modified Kirby-Bauer), E. coli;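 also: filter disk loaded with compound in DMSO laid on an LB agar bacterial lawn, kept overnight at 37 °C, then the inhibition zone around the disk is measured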
Protocol: as §1

[5] = tested on: Staphylococcus aureus (ATCC 25923); test: Minimum inhibitory concentration in LB broth, S. aureus; conditions: for Relative to AgNO3: efficacy per mole from MIC values
Bacillus subtilis W168 [6] = test: Minimum inhibitory concentration in LB broth, B. subtilis; conditions: for Relative to AgNO3: efficacy per mole from MIC values
[7] = tested on: Pseudomonas aeruginosa PAO1; test: Minimum inhibitory concentration in LB broth, P. aeruginosa; conditions: for Relative to AgNO3: efficacy per mole from MIC values
Escherichia coli HB101 [8] = test: Minimum inhibitory concentration in LB broth, E. coli; conditions: for Relative to AgNO3: efficacy per mole from MIC values;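 as to all read-outs here: broth dilution MIC, test compounds first taken up in DMSO, then serially diluted in LB medium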
[9] = tested on: Gram positive and Gram negative bacteria; test: Antimicrobial activity, summary of TABLES 16-18
Protocol: The new class of fluorinated triazapentadiene compounds with and without metal complexation as described herein were analyzed for antibacterial activity against several bacterial strains (both Gram positive and Gram negative). Methods for antimicrobial analysis included a modified Kirby-Bauer method and a determination of their minimum inhibitory concentrations. In brief, the modified Kirby-Bauer method relied on placement of a filter disk impregnated with a desired compound on a solid growth medium. Bacteria were grown to a confluent lawn and the extent of growth inhibition was measured (e.g., as an extent/percentage of a clear zone on the disk and/or solid medium).
For MIC assessment, compounds were initially dissolved in DMSO and serial dilutions of soluble compounds were made in LB broth.

Compound | Diameter of the zone of growth inhibition ([1]; 5.7 × 10^0 mM) | Diameter of the zone of growth inhibition ([1]; 5.7 × 10^1 mM) | Diameter of the zone of growth inhibition ([1]; 5.7 × 10^−1 mM) | Diameter of the zone of growth inhibition ([1]; 5.7 × 10^−2 mM) | Diameter of the zone of growth inhibition ([1]; 5.7 × 10^−3 mM) | Diameter of the zone of growth inhibition ([1]; 5.7 × 10^−4 mM) | Diameter of the zone of growth inhibition ([1]; 5.7 × 10^−5 mM) | Diameter of the zone of growth inhibition (Bacillus subtilis W168 [2]; 5.7 × 10^0 mM) | Diameter of the zone of growth inhibition (Bacillus subtilis W168 [2]; 5.7 × 10^1 mM) | Diameter of the zone of growth inhibition (Bacillus subtilis W168 [2]; 5.7 × 10^−1 mM) | Diameter of the zone of growth inhibition (Bacillus subtilis W168 [2]; 5.7 × 10^−2 mM) | Diameter of the zone of growth inhibition (Bacillus subtilis W168 [2]; 5.7 × 10^−3 mM) | Diameter of the zone of growth inhibition (Bacillus subtilis W168 [2]; 5.7 × 10^−4 mM) | Diameter of the zone of growth inhibition (Bacillus subtilis W168 [2]; 5.7 × 10^−5 mM) | Diameter of the zone of growth inhibition (Bacillus subtilis W168 [2]; 5.7 × 10^−6 mM) | Diameter of the zone of growth inhibition (Bacillus subtilis W168 [2]; 5.7 × 10^−7 mM) | Diameter of the zone of growth inhibition ([3]; 5.7 × 10^0 mM) | Diameter of the zone of growth inhibition ([3]; 5.7 × 10^1 mM) | Diameter of the zone of growth inhibition ([3]; 5.7 × 10^−1 mM) | Diameter of the zone of growth inhibition ([3]; 5.7 × 10^−2 mM) | also measured
Fc1cccc(C(F)(F)F)c1N=C(N=C([N]([Ag])c1c(F)cccc1C(F)(F)F)C(F)(F)C(F)(F)C(F)(F)F)C(F)(F)C(F)(F)C(F)(F)F [[N{(C3F7)C(2-F,6-CF3C6H3)N}2]Ag] | 14.0 mm | 19.0 mm | 9.5 mm | 9.0 mm | 7.5 mm | 6.0 (NZ) mm | 6.0 (NZ) mm | 131.0 mm | 115.0 mm | 78.0 mm | 39.0 mm | 10.0 mm | 10.0 mm | 9.0 mm | 9.0 mm | 7.5 mm | 15.0 mm | 23.5 mm | 9.0 mm | 6.0 (NZ) mm | Diameter of the zone of growth inhibition ([1]; 5.7 × 10^−6 mM): 6.0 (NZ) mm; Diameter of the zone of growth inhibition ([1]; 5.7 × 10^−7 mM): 6.0 (NZ) mm; Diameter of the zone of growth inhibition ([3]; 5.7 × 10^−3 mM): 6.0 (NZ) mm; Diameter of the zone of growth inhibition (Escherichia coli HB101 [4]; 5.7 × 10^0 mM): 12.5 mm; Diameter of the zone of growth inhibition (Escherichia coli HB101 [4]; 5.7 × 10^1 mM): 22.0 mm; Diameter of the zone of growth inhibition (Escherichia coli HB101 [4]; 5.7 × 10^−1 mM): 10.0 mm; Diameter of the zone of growth inhibition (Escherichia coli HB101 [4]; 5.7 × 10^−2 mM): 9.0 mm; Diameter of the zone of growth inhibition (Escherichia coli HB101 [4]; 5.7 × 10^−3 mM): 8.0 mm; MIC [5]: 8.78 × 10^−1 μg/ml and 1.05 × 10^−3 mM; Relative to AgNO3 [5]: 70.10; MIC (Bacillus subtilis W168 [6]): 8.70 × 10^−2 μg/ml and 1.04 × 10^−4 mM; Relative to AgNO3 (Bacillus subtilis W168 [6]): 1413.46; MIC [7]: 17.56 μg/ml and 2.1 × 10^−2 mM; sensitivity of the bacteria to the compound (in words) [7]: most sensitive; Relative to AgNO3 [7]: 8.76 × 10^−1; MIC (Escherichia coli HB101 [8]): 8.78 μg/ml and 1.00 × 10^−2 mM; sensitivity of the bacteria to the compound (in words) (Escherichia coli HB101 [8]): most sensitive; Relative to AgNO3 (Escherichia coli HB101 [8]): 5.89; antimicrobial activity (in words) [9]: Effective
Fc1cccc(C(F)(F)F)c1N=C(N=C(Nc1c(F)cccc1C(F)(F)F)C(F)(F)C(F)(F)C(F)(F)F)C(F)(F)C(F)(F)C(F)(F)F [[N{(C3F7)C(2-F,6-(CF3)C6H3)N}2]H] | 36.0 mm | 47.5 mm | 34.0 mm | 9.0 mm | 8.0 mm | 6.0 (NZ) mm | 6.0 (NZ) mm | 85.0 mm | 100.0 mm | 50.0 mm | 30.0 mm | 13.5 mm | 7.0 mm | 8.0 mm | 8.0 mm | 7.5 mm | 8.5 mm | 9.0 mm | 8.0 mm | 8.0 mm | Diameter of the zone of growth inhibition ([3]; 5.7 × 10^−3 mM): 8.0 mm; Diameter of the zone of growth inhibition ([3]; 5.7 × 10^−4 mM): 7.0 mm; Diameter of the zone of growth inhibition ([3]; 5.7 × 10^−5 mM): 6.0 (NZ) mm; Diameter of the zone of growth inhibition (Escherichia coli HB101 [4]; 5.7 × 10^0 mM): 8.5 mm; Diameter of the zone of growth inhibition (Escherichia coli HB101 [4]; 5.7 × 10^1 mM): 9.0 mm; Diameter of the zone of growth inhibition (Escherichia coli HB101 [4]; 5.7 × 10^−1 mM): 8.0 mm; Diameter of the zone of growth inhibition (Escherichia coli HB101 [4]; 5.7 × 10^−2 mM): 7.0 mm; Diameter of the zone of growth inhibition (Escherichia coli HB101 [4]; 5.7 × 10^−3 mM): 7.0 mm; Diameter of the zone of growth inhibition (Escherichia coli HB101 [4]; 5.7 × 10^−4 mM): 7.0 mm; Diameter of the zone of growth inhibition (Escherichia coli HB101 [4]; 5.7 × 10^−5 mM): 7.0 mm; MIC [5]: 1.55 μg/ml and 1.06 × 10^−3 mM; Relative to AgNO3 [5]: 34.71; MIC (Bacillus subtilis W168 [6]): 1.60 × 10^−1 μg/ml and 2.19 × 10^−4 mM; Relative to AgNO3 (Bacillus subtilis W168 [6]): 671.23; MIC [7]: 2912.70 μg/ml and 3.98 mM; Relative to AgNO3 [7]: 4.62 × 10^−3; MIC (Escherichia coli HB101 [8]): 2912.70 μg/ml and 3.98 mM; Relative to AgNO3 (Escherichia coli HB101 [8]): 1.48 × 10^−2; antimicrobial activity (in words) [9]: Effective
